In US20260226493A1, “HERBICIDE RESISTANT PLANTS” (SYNGENTA CROP PROTECTION AG, priority 2023, published 2026):
Values joined by “and” are separate entries in the source; they are usually repeats but may differ in a detail not shown here. Identical values can stand only once.

Legend:
Assay type in all cases: in vivo
[1] = test system: D4585 (Arabidopsis thaliana BIO3-BIO1 P421L) containing tobacco plants; assay: Visual herbicide damage score on transgenic tobacco D4585 (pCMP AtBioDA P421L); details: 600 gai/ha; 21 DAT; one D4585 transgenic plant
Excerpt: (§1) Populations of transgenic tobacco comprising 20-30 transgenic events per plant transformation constructs were generated as described in Example 1. These lines were clonally propagated and 1 clone per event was sprayed with 600 g ai/ha compound L or A+0.2% Genapol X080 with a spray volume of 200 L/Ha (“g ai/ha” refers to grams of active compound per hectare).
(§2) Herbicidal damage was visually assessed across the population and a herbicide damage score given at 7, 14 and 21 days. A score of 0 indicates no visible damage or stunting whereas a score of 100 indicates a complete death of the plant. 20 transgenic events (i.e. individual transgenic plants) from each GM tobacco line were transplanted to soil 1 week prior to spraying with BIO3-BIO1inhibiting compounds. WT tobacco was included as a control.
(§3) To determine if overexpression of variants detailed in Example 7 confer resistance to BIO3-BIO1 inhibiting compounds when expressed in plants, GM tobacco lines were produced using the methods in Example 1 and tested with BIO3-BIO1 inhibiting compounds.
(§4) Transgenic tobacco plants expressing the Arabidopsis thaliana BIO3-BIO1 variants C388D (SEQ ID NO:26), P421L(SEQ ID NO:41), F348C (SEQ ID NO:28), G700S (SEQ ID NO:39), W392S (SEQ ID NO:70) and the Zea mays BIO3-BIO1 variant C372D (SEQ ID NO:324). Populations of transgenic tobacco were sprayed and assessed as in Example 2

[2] = test system: D4597 (Arabidopsis thaliana BIO3-BIO1 G700S) containing tobacco plants; assay: Visual herbicide damage score on transgenic tobacco D4597 (pCMP AtBioDA G700S); details: 600 gai/ha; 7 DAT; each table row is one D4597 transgenic plant
Excerpt: as §1, §2, §3, §4

[3] = test system: D4604 (Arabidopsis thaliana BIO3-BIO1 W392S) containing tobacco plants; assay: Visual herbicide damage score on transgenic tobacco D4604 (pCMP AtBioDA W392S); details: 600 gai/ha, each table row is one D4604 transgenic plant
Excerpt: as §1, §2, §3, §4

Wildtype Samsun tobacco = assay: Visual herbicide damage score on wild-type tobacco plants after spraying; details: for percentage of damage: 600 gai/ha, one WT plant
Excerpt: as §1
as §2, with “A” for “Herbicidal damage was visually assessed across the population and a herbicide damage score given at 7, 14 and 21 days. A”, “control. […]” for “control.”

Compound | percentage of damage [1] | percentage of damage [2] [%] | percentage of damage ([3]; 14 DAT) [%] | percentage of damage ([3]; 21 DAT) [%] | percentage of damage (Wildtype Samsun tobacco; 7 DAT) | percentage of damage (Wildtype Samsun tobacco; 14 DAT) | percentage of damage (Wildtype Samsun tobacco; 21 DAT) | growth of representative wild type tobacco plant after treatment (photograph, FIG. 6) (Wildtype Samsun tobacco; compound L 600 gai/ha, 28 days post treatment, compared to Event 8307 (pBin TMV EcBioA) and Event 8402 (pBin TMV MTP EcBioA))
CCOC(=O)c1nn(-c2ccc3c(c2)OC(F)(F)C(F)(F)O3)c2cccc(C(C)=O)c2c1=O [Compound A, ethyl 5-acetyl-4-oxo-1-(2,2,3,3-tetrafluoro-1,4-benzodioxin-6-yl)cinnoline-3-carboxylate] | 5% and 0% and 2% | – | – | – | – | – | – | –
CCn1c(Cn2ccc(C(F)(F)F)n2)cc(=O)c(C(=O)O)c1-c1ccc(Cl)c(Cl)c1 [Compound L, 2-(3,4-dichlorophenyl)-1-ethyl-4-oxo-6-[[3-(trifluoromethyl)pyrazol-1-yl]methyl]pyridine-3-carboxylic acid] | – | 10 | 70 | 80 | 55% and 40% and 45% and 50% | 80% (2×) and 85% and 75% | 90% and 75% and 85% | significantly stunted growth
